Assay results published in PMC3214022, “Plasmodium falciparum Parasites Are Killed by a Transition State Analogue of Purine Nucleoside Phosphorylase in a Primate Animal Model” (PLoS ONE, 2011).
Values joined by “and” are separate entries in the source; they are usually repeats but may differ in a detail not shown here. Identical values can stand only once.

Columns and labels:
P. falciparum strain 3D7 = assay: 72 h in vitro growth inhibition test, PicoGreen DNA quantitation; format: cell-based; settings: Plasmodium falciparum, 3D7, 72 h
Experimental: (§1) Briefly, synchronous culture in the schizont stage was cultured for 24 h in media containing 10 µM of hypoxanthine. Ring stage parasite cultures (200 µl per well, with 1% hematocrit and 1% parasitaemia) were then grown for 72 h in the presence of increasing concentrations of the drug. After 72 h in culture, parasite viability was determined by DNA quantitation using PicoGreen (Invitrogen) as described by Quashie and colleagues. The half-maximum inhibitory concentration (IC50) calculation was performed with Origin software (OriginLab) using a nonlinear regression curve fitting. Half-maximum inhibitory concentration (IC50) is the concentration of inhibitor needed to kill 50% of parasites.

P. falciparum strain FVO = assay: as above; format: cell-based; settings: Plasmodium falciparum, chloroquine/quinine resistant strain FVO, 1% hematocrit, 10 µM hypoxanthine
Experimental: as §1

P. falciparum strain Dd2 = assay: as above; format: cell-based; settings: Plasmodium falciparum, DD2, 72 h
Experimental: as §1

[1] = test system: purine salvage (hypoxanthine, inosine, adenosine, 2′-deoxyguanosine); assay: Purine metabolites in plasma and blood cells of treated Aotus monkeys (UPLC-MS/MS); format: in vivo, Aotus lemurinus lemurinus
Experimental: (§2) Samples from blood cells, plasma and media were extracted and analyzed in duplicate. […] Samples were incubated for 20 min at 4 °C and neutralized with 5 M KOH at 10∶1 (v/v, HClO4/KOH) for 20 min at 4 °C. Plates were centrifuged (10 min at 4,000 rpm, 4°C) and supernatants were filtered through a MultiScreen® Filter Plate with Ultracel®-10 Membrane (Millipore). Metabolite and inhibitor levels were quantified by UPLC/MS/MS using a Xevo TQ mass spectrometer (Waters). […] Quantitative determination was performed in ESI positive-ion mode using multiple-reaction monitoring (MRM) mode. The ESI capillary voltage was 0.3 kV, source temperature was set at 150 °C and desolvation temperature at 450 °C. Data acquisition and analysis were carried out by MassLynx V4.1 and QuanLynx software (Waters). The concentration of the metabolites was calculated by interpolation of the observed analyte/internal standard peak-area ratio with the corresponding calibration curve.
(§3) Laboratory bred Aotus lemurinus lemurinus monkeys (0.75–0.89 kg) were maintained as described. […] Blood samples were collected before the treatment started (t = 0), 0.05 h, 0.5 h, 1 h, 2 h, 6 h, 24 h, 48 h, and 6, 12 and 18 days after the first dose from each monkey and processed as described below. Pharmacokinetic parameters were calculated using PKSolver. For efficacy studies, Aotus monkeys were inoculated intravenously with 5×10^6 parasites of the FVO strain of P. falciparum in an approved treatment protocol. […] Parasitaemia was determined by Giemsa-stained thick blood smears prepared daily from the marginal ear vein [41]. Blood samples were collected from each monkey and transferred to tubes containing lithium heparin, centrifuged and both plasma and blood cells were frozen at −80 °C until analysis. Animals received a physical examination and blood chemistry profiles were monitored after treatment as described previously. Any monkey not responding appropriately to treatment was cured of its infection with mefloquine (40 mg kg^−1). […] The day of clearance is defined as the first of three consecutive days in which the thick blood films are parasite negative. The day of recrudescence is the first of three consecutive days of positive thick blood films after a period of clearance. Suppression is defined as a transient decrease in the parasite count post-treatment without clearance.

in vivo = assay: in vivo; set-up: species or system Aotus lemurinus lemurinus
Experimental: as §2, §3

[2] = test system: P. falciparum infected-erythrocytes; assay: Polyamine and purine levels in cultured cells after BCX4945 treatment (HPLC, UPLC/MS/MS); format: cell-based, Plasmodium falciparum; settings: 5 µM BCX4945, 24 h
Experimental: Polyamines from 0.5 M PCA extracts were analyzed as the dansyl-derivatives by HPLC/fluorescence on a Waters Millennium system. Protein concentration was determined with a bicinchoninic acid (BCA) protein assay kit according to the manufacturer's instructions (Pierce) using BSA as a standard. Data from biological samples were normalized to the protein content.
as §2

[3] = test system: P. falciparum-infected erythrocytes; assay: Metabolic labeling with [3H]inosine or [3H]hypoxanthine and HPLC analysis; format: cell-based, Plasmodium falciparum; settings: 10 µM BCX4945, 1 h labeling
Text: Samples were extracted with perchloric acid (PCA), neutralized and analyzed by HPLC as described.

[4] = test system: P. falciparum (FVO strain); assay: Efficacy study: parasitaemia in infected Aotus monkeys (thick blood smears); format: in vivo, Aotus lemurinus lemurinus; settings: for Parasitaemia: oral 50 mg kg^−1 twice a day for 7 days, monkeys ITM 1-3 = c3-c5
Experimental: as §3

P. falciparum cultures = assay: Inosine and hypoxanthine rescue assay; format: cell-based, Plasmodium falciparum; settings: 15 µM BCX4945, hypoxanthine or inosine up to 200 µM, 72 h
Experimental: Synchronized, schizont stage parasites were washed in purine-free medium to remove excess hypoxanthine and inoculated into freshly drawn erythrocytes that had been washed and resuspended in purine-free medium. The schizont stage parasites were cultured in purine-free medium for 24 h to further reduce hypoxanthine inside the cell. […] Parasite viability was determined by DNA quantitation as described by Quashie and colleagues. For each condition, two independent experiments were carried out in triplicate.

[5] = infected Aotus under BCX4945 treatment
[6] = oral 50 mg kg^−1 twice a day for seven days

## Nc1nc2c(CN3CC(O)C(CO)C3)c[nH]c2c(=O)[nH]1 (stereo not shown) [BCX4945, 4′-deaza-1′-aza-2′-deoxy-1′-(9-methylene)-Immucillin-G]
P. falciparum strain 3D7
  IC50: 164 ± 20 nM
P. falciparum strain FVO
  IC50: 202 ± 27 nM
P. falciparum strain Dd2
  IC50: 130 ± 22 nM
[1]; 50 mg kg^−1 per dose twice a day
  hypoxanthine in plasma throughout the treatment period: 0.3 ± 0.2 µM
[1]; BCX4945 treatment
  2′-deoxyguanosine levels in plasma and blood cells: increased
[1]; [5]
  hypoxanthine concentration in plasma and blood cells: below 0.3 µM
  inosine concentration in plasma and blood cells: above 50 µM
[1]; infected animals, three days after the end of three-day oral treatment
  hypoxanthine reappearing in the blood: ~30 µM
In vivo; Aotus lemurinus lemurinus
  bioavailability: 28%
In vivo; Aotus lemurinus lemurinus, po
  concentration at 24 h: ~1200 nM
  plasma concentration within 1 h of the first dose: approximately 6 µM
In vivo; monkey
  half-life: 1.2 to 1.3 h
In vivo; monkey, iv, 10 mg/kg
  half-life: 1.3 h
In vivo; monkey, po, 50 mg/kg
  Cmax: ≤ 15000 nM
  half-life: 1.2 h
[2]
  Adenosine, cell pellet: 10±4 nmoles/mg protein
  Adenosine, supernatant: 0.4±0.2 (0.08) µM
  BCX4945 level, cell pellet: 20±6 (0.004) nmoles/mg protein
  BCX4945 level, supernatant: 5±0.6 (0.0002) µM
  Hypoxanthine, cell pellet: 0 (0.007) nmoles/mg protein
  Hypoxanthine, supernatant: 0 (0.004) µM
  Inosine, cell pellet: 19±5 nmoles/mg protein
  Inosine, supernatant: 60 µM and 61±5 (0.0001) µM
  MTA, cell pellet: 0.6±0.1 nmoles/mg protein
  MTA, supernatant: 0 µM
  MTI, cell pellet: 0.6±0.1 nmoles/mg protein
  MTI, supernatant: 0.3±0.1 (0.03) µM
  Putrescine, cell pellet: 0.2±0.1 (0.01) nmoles/mg protein
  Spermidine, cell pellet: 1.1±0.3 (0.02) nmoles/mg protein
  Spermine, cell pellet: 0.07±0.03 (0.01) nmoles/mg protein
[3]
  [3H]hypoxanthine incorporation into purine derivatives: continues at reduced levels
[3]; schizont and trophozoite stages
  [3H]inosine incorporation into the purine pool: complete inhibition
[4]; day 1 post-treatment
  Parasitaemia: 0 Parasites per µl×10^3
[4]; day of treatment 6
  Parasitaemia: 0 Parasites per µl×10^3
[4]; day −1 (before treatment)
  Parasitaemia: 0.7 Parasites per µl×10^3 and 0.5 Parasites per µl×10^3
[4]; [6]
  clearance of P. falciparum infection: cleared P. falciparum infections between the fourth and the seventh day of treatment
  parasitaemia cleared, of the original infection: > 99.99%
  time monkeys remained parasite-negative post-treatment: up to nine days
[4]; oral BCX4945, Aotus model
  response to treatment (category): clearance and recrudescence
P. falciparum cultures
  rescue of growth by purine supplementation: Hypoxanthine, but not inosine, can bypass PNP inhibition
